In US6605619B1, “Nitroxides as protectors against oxidatives stress” (The United States of America as represented by the …, priority 1992, dated 2003):
Marks after values point to notes of the source that are not given here.

B1: catalase: catalase (CAT), enzyme that can convert H2O2 to H2O (protein, UniProt P00432 2-527, looked up)
Catalase: ADNRDPASDQMKHWKEQRAAQKPDVLTTGGGNPVGDKLNSLTVGPRGPLLVQDVVFTDEMAHFDRERIPERVVHAKGAGAFGYFEVTHDITRYSKAKVFEHIGKRTPIAVRFSTVAGESGSADTVRDPRGFAVKFYTEDGNWDLVGNNTPIFFIRDALLFPSFIHSQKRNPQTHLKDPDMVWDFWSLRPESLHQVSFLFSDRGIPDGHRHMNGYGSHTFKLVNANGEAVYCKFHYKTDQGIKNLSVEDAARLAHEDPDYGLRDLFNAIATGNYPSWTLYIQVMTFSEAEIFPFNPFDLTKVWPHGDYPLIPVGKLVLNRNPVNYFAEVEQLAFDPSNMPPGIEPSPDKMLQGRLFAYPDTHRHRLGPNYLQIPVNCPYRARVANYQRDGPMCMMDNQGGAPNYYPNSFSAPEHQPSALEHRTHFSGDVQRFNSANDDNVTQVRTFYLKVLNEEQRKRLCENIAGHLKDAQLFIQKKAVKNFSDVHPEYGSRIQALLDKYNEEKPKNAVHTYVQHGSHLSAREKANL

Experiments:
[1] = EPR signal of nitroxides exposed to O2 flux formed by HX/XO (spin-loss); assay type: biochemical; settings: % from total R′RNO + R′RNOH after exposure to 5 mM HX + 0.03 U/ml XO in air-saturated PBS pH 7.2
Protocol: For EPR experiments, samples (0.05-0.1 ml) either of solutions of chemicals or cell suspensions were drawn by a syringe into a gas-permeable teflon capillary of 0.8 mm inner diameter, 0.05 mm wall thickness (Zeus Industrial Products, Inc. Raritan, N.J.). Each capillary was folded twice, inserted into a narrow quartz tube which was open at both ends (2.5 mm ID), and then placed horizontally into the EPR cavity. During the experiments, gases of desired compositions were blown around the sample without having to disturb the alignment of the tube within the EPR cavity. EPR spectra were recorded in a Varian E4 (or E9) X-band spectrometer, with field set at 3357 G, modulation frequency of 100 KHz, modulation amplitude of 1 G and non-saturating microwave power. The EPR spectrometer was interfaced to an IBM-PC through an analog-to-digital converter and a data translation hardware (DT2801) and the spectra were digitized using commercial acquisition software, enabling subtraction of background signals. To study the kinetics of the spin-loss, the spectra were deliberately overmodulated, and the magnetic field was kept constant while the intensity of the EPR signal was followed.

[2] = Water/octanol partition of nitroxides, ratio determined by EPR; assay type: physicochemical; settings: Octanol:water
Source text: CHD, 2-spirocyclohexane doxyl(2-spirocyclohexane-5,5-dimethyl-3-oxazolidinoxyl) and OXANO, 2-ethyl-2,5,5-trimethyl-3-oxazolidine-1-oxyl as well as other nitroxides were synthesized as described by Keana et al (J. Am. Chem. Soc., 89, 3055-3056, 1967) For the general synthesis of the cyclic amines, the appropriate starting ketone was reacted with 2-amino-2-methyl-1-propanol in benzene in the presence of catalytic amounts of p-toluene sulfonic acid. As the cyclic structure formed, water was eliminated. The volume of water collected in a Dean Stark apparatus was monitored and used to gauge the reaction progress. The amines thus produced were purified through fractional distillation under reduced pressure, characterized by 220 MHz ^1H NMR, IR, UV, either EI or CI mass spectroscopy, and subsequently oxidized to the corresponding nitroxides using m-chloroperbenzoic acid. The nitroxides were purified by silica flash chromatography (Still et al, J. Org. Chem., 43, 2923-2925, 1978). Water/octanol ratios were determined by placing a quantity of nitroxide in water+octanol within a separatory funnel. The mixture was shaken thoroughly and allowed to separate for 15 min, whereupon aliquots were taken from both fractions and the ratio of nitroxide distribution was determined using electron paramagnetic resonance (EPR) spectroscopy, by comparing the intensities of signal obtained under N2.

[3] = SOD-inhibitable ferricytochrome c reduction assay, rate constants of reaction with O2 (SOD-like activity); assay type: biochemical; settings: low ionic strength (10 mM HEPES), pH 7.0, 22° C.
Source text: As a further check, the reaction of representatives of both 5- and 6-membered cyclic nitroxides with O2 was studied. The SOD-inhibitable ferricytochrome c reduction assay (Fridovich, Handbook of Methods for Oxygen Radical Research, 213-215, 1985) was used to determine rate constants of reaction with O2. […] The reaction was started by adding 0.01 U/ml XO and the rate of ferricytochrome c reduction, in the absence (V) and in the presence (v) of various nitroxides, was spectrophotometrically followed at 550 nm. Both reference and sample cuvettes contained all the reagents, with the reference cuvette containing 100 units/ml SOD, thereby eliminating spurious reactions from interfering with the determination of rate constants. Data were analyzed by plotting V/v as a function of [nitroxide] and k1 was calculated, knowing kCytC+superoxide, according to:
(V/v)−1=k1x[nitroxide]/kCytC+superoxidex[Cyt−c^III].

[4] = tested on: Chinese hamster V79 cells; assay: Protection of cells exposed to H2O2 under hypoxic conditions; assay type: cell-based; settings: 600 μM H2O2, 1 h, 37° C.
Protocol: Some studies required exposure to H2O2 under hypoxic conditions. For these studies, cells dispersed in 1.8 ml of medium were plated into specially designed glass flasks (Russo et al, Radiat. Res., 103, 232-239, 1985). The flasks were sealed with soft rubber stoppers, and 19-gauge needles were pushed through to act as entrance and exit ports for a humidified gas mixture of 95% nitrogen/5% CO2 (Matheson Gas Products). […] Stoppered flasks were connected in series and mounted on a reciprocating platform and gassed at 37° C. for 45 min. […] After 45 min of gassing, the hypoxic H2O2 solution was added to the cell monolayer culture. The cells were exposed to H2O2 for 1 h under hypoxic conditions. N2 gas flow was maintained during the H2O2 exposure. In parallel flasks, DF and CHD were added as described above, and were present during the entire gassing procedure. Following treatment, cell survival was assessed as described above.

[5] = tested on: Chinese hamster V79 cells; assay: Protection of cells exposed to HX/XO, clonogenic survival; assay type: cell-based; settings: for cell survival / protection from HX/XO: 0.05 U/ml XO + 0.5 mM HX, 37° C., 5 mM nitroxide, 100 U/ml catalase, SOD, 500 μM DF preincubated 2 h
Protocol: Chinese hamster V79 cells were grown in F12 medium supplemented with 10% fetal calf serum, penicillin, and streptomycin. Survival was assessed in all studies by the clonogenic assay. The plating efficiency range between 80-90%. Stock cultures of exponentially growing cells were trypsinized, rinsed, and plated (5×10^5 cells/dish) into a number of 100 mm petri dishes and incubated 16 h at 37° C. prior to experimental protocols. Cells were exposed for 1 h at 37° C. to either 0.5 mM hypoxanthine (HX)+0.05 U/ml of xanthine oxidase (XO) for varying lengths of time, or to H2O2 at different concentrations. To assess possible modulation in cytotoxicity, catalase, 100 U/ml; SOD, 100 μg/ml; DF, 500 μM; and 5 mM of each of the nitroxides from Table 1 were added to parallel cultures. CHD was prepared in a stock solution in ethanol and diluted into medium such that the final concentration was 5 mM. […] TEMPOL is water soluble and was prepared directly in tissue culture medium. […] DF was added either 2 h prior to or during treatment while the other agents were present only during HX/XO or H2O2 treatment. Following treatment, cells were rinsed, trypsinized, counted, and plated for macroscopic colony formation. For each dose determination cells were plated in triplicate and the experiments were repeated a minimum of two times. Plates were incubated 7 days, after which colonies were fixed with methanol/acetic acid, stained with crystal violet, and counted. Colonies containing >50 cells were scored. Error bars represent S.D. of the mean and are shown when larger than the symbol.

Molecule	Steady state EPR signal (%) [1] [%]	Partition coefficient [2]	kR′RNO + O2 [3]	protection against H2O2 cytotoxicity under hypoxic conditions [4]	cell survival / protection from HX/XO [5]	protection from HX/XO, DF added simultaneously ([5]; DF addition simultaneously with HX/XO (data not shown))
CCC1(C)OC(C)(C)CN1[O] (stereo not shown) [OXANO, 2-ethyl-2,5,5-trimethyl-3-oxazolidine-1-oxyl]	50	10	1.1 × 10^3 M − 1^s − 1	–	–	–
CC(=O)N(O)CCCCCNC(=O)CCC(=O)N(O)CCCCCNC(=O)CCC(=O)N(O)CCCCCN [DF, Desferrioxamine, reference compound]	–	–	–	complete protection	complete protection	only partial protection
B1	–	–	–	–	complete protection	–
